For the assay, the target named is T1, human mGluR5b (Homo sapiens, UniProt P41594).
T1 construct: expressed in transfected cells; host or cells: CHO cells, pSwitch vector (Invitrogen), expression induced with mifepristone
Kind of assay: FLIPR positive modulator assay in CHO cells expressing human mGluR5b. The format is cell-based. The note with it: FLIPR second read after EC20 glutamate, normalised to EC20 (basal) and EC100 (total) glutamate response, read-out: pEC50 in the human mGluR5b positive modulator assay (converted). Here is the method: CHO cells expressing human mGluR5b (pSwitch vector, Invitrogen) were maintained in DMEM media with 10% Foetal Calf Serum, 0.005% Hygromycin, Proline(10 mg/mL), Zeocin(0.005%). The media was replaced between subculturing days to remove any excess glutamate build up that may cause receptor desensitization. 24 hrs prior to conducting the assay, cells were plated in 384-well black flat clear bottom plates and mGluR5 expression was induced with the addition of 0.01 nM mifepristone. The plates were incubated at 37° C. to give a monolayer with a confluency of 80%.
The tissue culture medium was aspirated using a Tecan power washer. Cells were loaded with 30 μl of Hanks Balanced Salts (HBSS)+[…]+2 μM Fluo-4+250 μM Brilliant Black+0.01% Pluronic acid. The cells were incubated at 37° C. for 2 hours to allow uptake of the dye Fluo-4AM into the cell cytosol, which was converted to Fluo-4 by natural esterases cleaving the AM region preventing the Fluo-4 leaving the cell. […]
A 0.38 M solution of glutamic acid was prepared in water. […] A fluorescent reading was made. […] A second fluorescent read was made. […]
The compound was added ‘on line’ to the cells and a first FLIPR read was made to estimate agonism. The cell plates were then incubated at 37° C. for 5-10 min after which the chosen EC20 Glutamate was added ‘on line’ and a second FLIPR reading made to estimate modulation. […]

T1 sequence (P41594 21-1212): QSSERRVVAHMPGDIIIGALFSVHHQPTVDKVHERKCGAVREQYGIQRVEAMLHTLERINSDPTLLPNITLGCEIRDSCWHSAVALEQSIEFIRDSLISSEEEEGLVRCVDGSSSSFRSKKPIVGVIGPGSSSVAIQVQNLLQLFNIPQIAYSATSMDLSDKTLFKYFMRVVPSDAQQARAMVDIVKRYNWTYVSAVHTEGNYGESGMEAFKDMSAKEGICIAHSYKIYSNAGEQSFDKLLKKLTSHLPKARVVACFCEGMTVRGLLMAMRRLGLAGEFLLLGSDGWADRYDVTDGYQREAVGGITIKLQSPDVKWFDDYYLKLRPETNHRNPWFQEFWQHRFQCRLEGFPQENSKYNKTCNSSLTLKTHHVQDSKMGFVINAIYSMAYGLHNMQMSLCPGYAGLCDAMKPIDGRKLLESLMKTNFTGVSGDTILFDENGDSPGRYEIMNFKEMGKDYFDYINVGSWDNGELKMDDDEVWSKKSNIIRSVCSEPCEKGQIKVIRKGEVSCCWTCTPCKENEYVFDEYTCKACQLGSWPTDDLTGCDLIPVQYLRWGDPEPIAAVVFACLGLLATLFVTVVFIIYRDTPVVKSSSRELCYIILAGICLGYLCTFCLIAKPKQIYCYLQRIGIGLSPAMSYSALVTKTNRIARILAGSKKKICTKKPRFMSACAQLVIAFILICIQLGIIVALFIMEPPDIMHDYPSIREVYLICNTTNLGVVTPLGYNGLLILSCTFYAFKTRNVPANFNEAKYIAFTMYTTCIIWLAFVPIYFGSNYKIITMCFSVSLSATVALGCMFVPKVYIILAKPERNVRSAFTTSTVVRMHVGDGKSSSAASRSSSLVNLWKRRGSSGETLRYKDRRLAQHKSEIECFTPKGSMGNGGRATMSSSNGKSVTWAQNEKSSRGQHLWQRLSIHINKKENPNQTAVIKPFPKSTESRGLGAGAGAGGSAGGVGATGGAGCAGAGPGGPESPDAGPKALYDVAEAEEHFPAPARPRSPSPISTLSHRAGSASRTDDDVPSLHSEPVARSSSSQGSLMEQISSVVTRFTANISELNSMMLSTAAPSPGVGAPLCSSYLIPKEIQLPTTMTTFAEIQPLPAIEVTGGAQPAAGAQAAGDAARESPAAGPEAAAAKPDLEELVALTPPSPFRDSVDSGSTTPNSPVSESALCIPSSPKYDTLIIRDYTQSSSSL

On to `N#Cc1cc(F)ccc1N1CCN(C(=O)COCc2ccc(F)cc2)CC1` [5-fluoro-2-[4-({[(4-fluorophenyl)methyl]oxy}acetyl)-1-piperazinyl]benzonitrile], for which the EC50 is under 1000 nM.

The values above are taken from patent US20100173912A1, “Novel Compound” (priority 2007, published 2010).
